Results from patent publication US11510964B2, “Macrocyclic peptides to decrease c-Myc protein levels and reduce cancer cell growth” (University of Kansas, priority 2017, dated 2022).
Entries after “also recorded” stand apart in the source; their conditions may differ. Non-standard residues stand in square brackets, D forms with d. Residues, ends and D or L forms follow the SMILES beside them.

What was measured:
HEK cells = assay: Cell proliferation assay (WST-1); assay type: cell-based, human
Procedure: (§1) Human prostate cancer PC-3 cells were cultured and maintained in EMEM (ATCC), non-prostate HEK (human embryonic kidney) cells were cultured in DMEM, human prostate cancer DU145, LNCaP, 22Rv1 cells were cultured in RPMI 1640 (ATCC), and normal BPH-1 prostate cells and prostate cancer C4-2 cell line were cultured in RPMI 1640 (ATCC), all containing 10% fetal bovine serum (Atlanta Biologicals) and 1% penicillin/streptomycin (Invitrogen). Cells were grown at 37° C. in humidified air with 5% CO2 and passaged every fourth to fifth day following trypsinization with trypsin/EDTA (Invitrogen).^16
(§2) PC-3, LNCaP, DU 145, 22Rv1, C4-2, BPH-1, and HEK cells were grown to a density of 2000 cells/well in 96 well plates and treated with [D-Trp]CJ-15,208 or other peptides for 24-72 h in duplicate. Media containing [D-Trp]CJ-15,208 was changed every 24 h. The proliferation of treated cells was determined using the cell proliferation reagent WST-1 (Roche) per the manufacturer's instructions and compared to […] control cells in 1% DMSO in media. After treatment with compound 10 μL of the reagent was added to the well in 100 μL culture media, and the cells incubated at 37° C. for 30 min. The absorbance of the media in each well was measured at […] using a plate reader (BioTek). The percentage cell proliferation was normalized to vehicle treated control cells calculated as: (mean absorbance of sample/mean absorbance of control cells)×100.^38
(§3) Each experiment was performed in triplicate unless otherwise stated in the figure legend. GraphPad Prism 5 was used to determine IC50 values. Data represent the mean value+/−SEM. Compound vs. vehicle treated cells in the cell cycle phase and apoptosis experiments (FIGS. 5-8) were compared using the student's t-test, with a two-tailed, unpaired method, using the Prism software. The effects of compound vs. vehicle treatment on protein levels (FIG. 10) were evaluated by one-way ANOVA with Dunnett's test for multiple comparisons.

BPH-1 cells = assay: Cell proliferation assay (WST-1); assay type: cell-based
Procedure: as §1, §2, §3

C4-2 cells = assay: Cell proliferation assay (WST-1); assay type: cell-based
Procedure: as §1, §2, §3

c-Myc mRNA in PC-3 cells = assay: c-Myc mRNA measurement (real-time PCR); assay type: cell-based, human; conditions: 10 μM, 0 h to 48 h
Procedure: PC-3 cells were grown in 10 cm petri dishes to 75% confluency, and then treated with [D-Trp] CJ-15,208 (10 μM) for 2-48 h. Cells were harvested and the total RNA from each sample was isolated using the Aurum Total RNA Mini Kit #732-6820 (Bio-Rad) per the manufacturer's instructions. The RNA concentration in the sample was determined using a NanoDrop ND-1000 spectrophotometer. Total RNA (1 μg) from each sample was used to synthesize cDNA using the iScript cDNA Synthesis Kit (BioRad). Real-time PCR was performed with a Power-SYBR Green PCR Master Mix (Applied Biosystems) using the following thermal cycles: initial activation at 95° C. for 5 min, followed by 40 cycles of 95° C. for 15 s and 60° C. for 1 min. The fluorescence was determined at the melting temperature of the product for 20 s (ABI PRISM 7000 Sequence Detection System, Applied Biosystems). The following primer sets were used to amplify regions of c-Myc and GAPDH (internal control): c-Myc (forward: 5′-CTG GTG CTC CAT GAG GAG-3′ (SEQ ID NO: 1), reverse: 5′-AGG TGA TCC AGA CTC TGA C-3′ SEQ ID NO: 2)) and GAPDH (forward: 5′-CCA TGG AGA AGG CTG GGG-3′ (SEQ ID NO: 3), reverse: 5′-CAAATGTGTCATGGATGACC-3′ SEQ ID NO: 4)). The levels of c-Myc mRNA were normalized to the GAPDH mRNA levels.^37

LNCaP cells = assay: Cell viability assay (Trypan Blue); assay type: cell-based, human; conditions: 48 h and 72 h
Procedure: (§4) The viability of prostate cancer cells was determined using Trypan Blue (Sigma) per the manufacturer's instructions. Cells were grown in 6 well plates to a density of 1×10^5 cells/well to 75% confluency and treated with compound in 0.5% DMSO at the indicated concentrations for 24-72 h, with 0.5% DMSO as the vehicle control. After treatment, the cell media from each well was collected. The cells were washed with phosphate buffer saline (PBS), trypsinized, and collected. All of the cells, combined media, and washes were centrifuged at 250×g for 5 min. The supernatant was discarded, and the cell pellet was resuspended in 500 μL PBS. Trypan blue (10 μL) was added to 100 μL of resuspended cells, and the solution incubated for 10 min. The cell number in 10 μL was then counted using a hematocytometer. Viable cells (not stained) were distinguished from dead cells (colored blue) and the % viable cells calculated as follows: [(number of white cells)/(number of total cells (white+blue))]*100 and compared with untreated cells.^16

22Rv1 cells = assay: Cell viability assay (Trypan Blue); assay type: cell-based, human; conditions: 48 h and 72 h
Procedure: as §4

PC-3 cells = assay: Cell viability assay (Trypan Blue); assay type: cell-based, human; conditions: 48 h and 72 h
Procedure: as §4

Compound: O=C1N[C@H](Cc2c[nH]c3ccccc23)C(=O)N[C@@H](Cc2ccccc2)C(=O)N2CCC[C@@H]2C(=O)N[C@H]1Cc1ccccc1 [[D-Trp]CJ-15,208, cyclo[Phe-D-Pro-Phe-D-Trp]] (cyclo(F[dP]F[dW]))
- IC50, cell growth (HEK cells; 48 h): No effect
- IC50, cell growth (HEK cells; 72 h): No effect
- effect on cell proliferation / cytotoxicity (HEK cells; time not stated): No cytotoxicity was observed; also recorded: did not prevent cell proliferation
- IC50, cell growth (BPH-1 cells; 48 h): No effect
- IC50, cell growth (BPH-1 cells; 72 h): No effect
- effect on cell proliferation / cytotoxicity (BPH-1 cells; time not stated): No cytotoxicity was observed; also recorded: did not prevent cell proliferation
- IC50, cell growth (C4-2 cells; 48 h): No effect
- IC50, cell growth (C4-2 cells; 72 h): No effect
- effect on cell proliferation (C4-2 cells; time not stated): no effect; also recorded: did not prevent cell proliferation
- c-Myc mRNA expression (c-Myc mRNA in PC-3 cells): did not affect mRNA expression; also recorded: did not alter cmyc mRNA levels
- cell death (Trypan blue) (LNCaP cells): resulted in cell death
- cell death (Trypan blue) (22Rv1 cells): resulted in cell death
- cell death (Trypan blue) (PC-3 cells): resulted in cell death
